{
  "source": "patent US20250346580A1",
  "about": "“NOVEL PYRIMIDINYL SULFONAMIDE DERIVATIVES” (Hoffmann-La Roche Inc., priority 2023, published 2025)",
  "target": "human GPR17 short isoform (Homo sapiens, UniProt Q13304)",
  "sequence (Q13304 29-367)": "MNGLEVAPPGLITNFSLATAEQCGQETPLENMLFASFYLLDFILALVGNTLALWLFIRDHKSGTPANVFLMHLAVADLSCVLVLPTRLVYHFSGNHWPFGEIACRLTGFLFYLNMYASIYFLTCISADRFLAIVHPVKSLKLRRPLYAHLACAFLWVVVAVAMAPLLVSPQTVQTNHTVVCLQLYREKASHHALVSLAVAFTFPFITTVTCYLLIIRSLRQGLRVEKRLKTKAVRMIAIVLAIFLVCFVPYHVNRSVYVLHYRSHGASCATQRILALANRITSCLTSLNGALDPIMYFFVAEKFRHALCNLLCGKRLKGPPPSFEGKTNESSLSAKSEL",
  "experiment": "GPR17 cAMP assay (hGPR17 cAMP)",
  "assay_type": "cell-based",
  "conditions": "CHO-K1 cells stably expressing human GPR17 short isoform; antagonist mode with EC80 of MDL29,951, forskolin 15 μM, TR-FRET cAMP",
  "procedure": "GPR17 cAMP Assay Protocol:\nCHO-K1 cells stably expressing vector containing untagged human GPR17 short isoform (Roche) were cultured at 37° C./5% CO2 in DMEM (Dulbecco's Modified Eagle Medium):F-12 (1:1) supplemented with 10% foetal bovine serum and 400 μg/ml Geneticin.\nChanges in intracellular cyclic adenosine monophosphate (cAMP) levels were quantified using the Nano-TRF Detection Assay kit (Roche Diagnostics, Cat. No. 05214386001). This assay allows for direct cAMP quantification in a homogeneous solution. cAMP is detected based on time-resolved fluorescence energy transfer (TR-FRET) and competitive binding of ruthenylated cAMP and endogenous cAMP to an anti-cAMP monoclonal antibody labeled with AlexaFluor-700. The Ruthenium complex serves as the FRET donor and transfers energy to AlexaFluor-700. The FRET signal is inversely proportional to the cAMP concentration.\nCHO-GPR17S cells were detached with Accutase and resuspended in assay buffer consisting of Hank's Balanced Salt Solution (HBSS), 10 mM HEPES (4-(2-hydroxyethyl) piperazine-1-ethanesulfonic acid solution) and 0.1% bovine serum albumin (pH 7.4). The cells were seeded in black 384-well plates (Corning) at a density of 10'000 cells/20 μl assay buffer until the addition of compounds.\nTest antagonist compounds were serially diluted in dimethyl sulfoxide (DMSO) and spotted in 384-well plates. The compounds were then diluted in HBSS buffer supplemented with an EC80 concentration of MDL29,951 (3-(2-Carboxy-4,6-dichloroindol-3-yl)propionic acid) (GPR17 agonist) plus 3-Isobutyl-1-methylxanthine (IBMX) (0.5 mM final concentration) and added to the cells at room temperature. Forskolin (15 μM final concentration) was added 5 minutes after the test compounds and the cells were incubated at room temperature for 30 minutes. The assay was stopped by adding cAMP detection mix (containing detergents for cell lysis) for 90 minutes at room temperature.\nCellular cAMP was measured using a Paradigm reader (Molecular Devices). The raw data was used to calculate the FRET signal based on the assay's P-factor as per cAMP kit instructions. The data was normalized to the maximal activity of a reference antagonist and dose response curves were fitted to the percent activity of the test compounds using a sigmoidal dose response model (Genedata Screener).",
  "data": [
    {"smiles": "COc1nc(NS(=O)(=O)c2c[nH]c(-c3nc(C)cs3)c2)nc(OC)c1OC(F)F", "note": "[Example 32, N-[5-(difluoromethoxy)-4,6-dimethoxy-pyrimidin-2-yl]-5-(4-methylthiazol-2-yl)-1H-pyrrole-3-sulfonamide]", "values": [
      {"measurement": "IC50", "value": 523, "unit": "nM"}
    ]},
    {"smiles": "COc1nc(NS(=O)(=O)c2c[nH]c(-c3nc(C)cs3)c2)nc(OC)c1OCC(F)F", "note": "[Example 33, N-[5-(2,2-difluoroethoxy)-4,6-dimethoxy-pyrimidin-2-yl]-5-(4-methylthiazol-2-yl)-1H-pyrrole-3-sulfonamide]", "values": [
      {"measurement": "IC50", "value": 283, "unit": "nM"}
    ]},
    {"smiles": "COc1nc(NS(=O)(=O)c2c[nH]c(-c3nccs3)c2)ncc1CC(F)F", "note": "[Example 34, N-[5-(2,2-difluoroethyl)-4-methoxy-pyrimidin-2-yl]-5-thiazol-2-yl-1H-pyrrole-3-sulfonamide]", "values": [
      {"measurement": "IC50", "value": 457, "unit": "nM"}
    ]},
    {"smiles": "COc1nc(NS(=O)(=O)c2c[nH]c(-c3nccs3)c2)nc(OC)c1C1CC1C#N", "note": "(centres unmarked) [Example 35, N-[5-(2-cyanocyclopropyl)-4,6-dimethoxy-pyrimidin-2-yl]-5-thiazol-2-yl-1H-pyrrole-3-sulfonamide]", "values": [
      {"measurement": "IC50", "value": 170, "unit": "nM"}
    ]},
    {"smiles": "COc1nc(NS(=O)(=O)c2c[nH]c(-c3cncs3)c2)nc(OC)c1OCC(F)F", "note": "[Example 36, N-[5-(2,2-difluoroethoxy)-4,6-dimethoxy-pyrimidin-2-yl]-5-thiazol-5-yl-1H-pyrrole-3-sulfonamide]", "values": [
      {"measurement": "IC50", "value": 111, "unit": "nM"}
    ]},
    {"smiles": "COc1nc(NS(=O)(=O)c2c[nH]c(-c3ccccc3F)c2)nc(OC)c1CC(F)F", "note": "[Example 37, N-[5-(2,2-difluoroethyl)-4,6-dimethoxy-pyrimidin-2-yl]-5-(2-fluorophenyl)-1H-pyrrole-3-sulfonamide]", "values": [
      {"measurement": "IC50", "value": 130, "unit": "nM"}
    ]},
    {"smiles": "COc1nc(NS(=O)(=O)c2c[nH]c(-c3ccccc3F)c2)nc(OC)c1OCCF", "note": "[Example 38, N-[5-(2-fluoroethoxy)-4,6-dimethoxy-pyrimidin-2-yl]-5-(2-fluorophenyl)-1H-pyrrole-3-sulfonamide]", "values": [
      {"measurement": "IC50", "value": 124, "unit": "nM"}
    ]},
    {"smiles": "COc1nc(NS(=O)(=O)c2c[nH]c(-c3ccccc3F)c2)nc(OC)c1OC(F)F", "note": "[Example 39, N-[5-(difluoromethoxy)-4,6-dimethoxy-pyrimidin-2-yl]-5-(2-fluorophenyl)-1H-pyrrole-3-sulfonamide]", "values": [
      {"measurement": "IC50", "value": 354, "unit": "nM"}
    ]},
    {"smiles": "COc1nc(NS(=O)(=O)c2c[nH]c(-c3ccccc3F)c2)nc(OC)c1OCC(F)F", "note": "[Example 40, N-[5-(2,2-difluoroethoxy)-4,6-dimethoxy-pyrimidin-2-yl]-5-(2-fluorophenyl)-1H-pyrrole-3-sulfonamide]", "values": [
      {"measurement": "IC50", "value": 540, "unit": "nM"}
    ]},
    {"smiles": "COc1nc(NS(=O)(=O)c2c[nH]c(-c3cccn(C)c3=O)c2)nc(OC)c1OCC(F)F", "note": "[Example 41, N-[5-(2,2-difluoroethoxy)-4,6-dimethoxy-pyrimidin-2-yl]-5-(2-keto-1-methyl-3-pyridyl)-1H-pyrrole-3-sulfonamide]", "values": [
      {"measurement": "IC50", "value": 1420, "unit": "nM"}
    ]},
    {"smiles": "COc1nc(NS(=O)(=O)c2c[nH]c(-c3cnc(C)s3)c2)nc(OC)c1OCC(F)F", "note": "[Example 42, N-[5-(2,2-difluoroethoxy)-4,6-dimethoxy-pyrimidin-2-yl]-5-(2-methylthiazol-5-yl)-1H-pyrrole-3-sulfonamide]", "values": [
      {"measurement": "IC50", "value": 1990, "unit": "nM"}
    ]},
    {"smiles": "COc1nc(NS(=O)(=O)c2c[nH]c(-c3ncccn3)c2)nc(OC)c1OCC(F)F", "note": "[Example 43, N-[5-(2,2-difluoroethoxy)-4,6-dimethoxy-pyrimidin-2-yl]-5-pyrimidin-2-yl-1H-pyrrole-3-sulfonamide]", "values": [
      {"measurement": "IC50", "value": 1250, "unit": "nM"}
    ]},
    {"smiles": "COc1nc(NS(=O)(=O)c2c[nH]c(-c3ncc(C)s3)c2)nc(OC)c1OCC(F)F", "note": "[Example 44, N-[5-(2,2-difluoroethoxy)-4,6-dimethoxy-pyrimidin-2-yl]-5-(5-methylthiazol-2-yl)-1H-pyrrole-3-sulfonamide]", "values": [
      {"measurement": "IC50", "value": 2670, "unit": "nM"}
    ]},
    {"smiles": "COc1nc(NS(=O)(=O)c2c[nH]c(-c3cccnn3)c2)nc(OC)c1OCC(F)F", "note": "[Example 45, N-[5-(2,2-difluoroethoxy)-4,6-dimethoxy-pyrimidin-2-yl]-5-pyridazin-3-yl-1H-pyrrole-3-sulfonamide]", "values": [
      {"measurement": "IC50", "value": 253, "unit": "nM"}
    ]}
  ]
}
